The record followed here is paper PMC12502564, “Evaluation of LLM-generated peptide as foundation template for discovery of effective encrypted AMPs against clinical superbugs” (Microbiology Spectrum, 2025).

No end group written: not given here. Where only a bound is given, the exact number is not on record here.

For one data set, the system named is A. baumannii ATCC19606. It is filed as cell-based, Acinetobacter baumannii. How it is done:
(§1) The MIC of all peptides was determined using the microdilution broth method in a 96-well plate. Peptides were dissolved in the DMSO with an initial concentration of 12,800 µg mL^−1. And cells of eight strains were separately suspended in the MHB at a density of approximately 10^5 CFU mL^−1. In the first column of the 96-well plate, 16 µL of peptide and 184 µL of MHB were added to each well to achieve a final concentration of 1,024 µg mL^−1. One-hundred microliters of MHB was added to each of the remaining wells. Then the first column of liquid was mixed well and diluted to the 12th column using the twofold dilution method. One-hundred microliters of prepared bacterial solution was added to all wells, and the 96-well plate was incubated at 37°C for 18–24 h. The MIC was defined as the concentration of the peptide in the well just preceding the first well showing visible turbidity. All experiments were performed in triplicate to ensure reliability.

In data set [1] the test system is CRAB 2210186. It is filed as cell-based, carbapenem-resistant Acinetobacter baumannii. How it is done: as §1
In data set [2] the test system is MRSA 2210187. It is filed as cell-based, methicillin-resistant Staphylococcus aureus. The following applies: 2210187. How it is done:
as §1

For the next data set, the system named is CRKP 2403276. It is filed as cell-based, carbapenem-resistant K. pneumoniae. How it is done: as §1
Data set [3] deals with all eight bacterial strains. It is filed as cell-based, gram-positive and gram-negative bacteria. The following applies: judged from MICs on eight strains. How it is done: as §1
The next data set deals with sheep red blood cells. Briefly: Hemolysis test. It is filed as cell-based. Conditions: 4% sheep red blood cell suspension in PBS, 37°C, 1 h, OD 450 nm, log2-transformed. How it is done:
Freshly collected sheep red blood cells, provided by Solarbio (Beijing, China), were washed three times with PBS to prepare a red blood cell suspension (2,000 rpm). Subsequently, the resulting red blood cells were suspended in 1 × PBS buffer and adjusted to a 4% red blood cell suspension. In a 96-well plate, perform twofold serial dilutions of the test peptides in 1 × PBS to final concentrations of 512, 256, 128, 64, 32, 16, 8, 4, 2, 1, 0.5, and 0.25 µg mL^−1 in each well. Use Triton X-100 as a positive control and 1 × PBS buffer as a negative control. Take 100 µL of red blood cell solution and 100 µL of peptide solutions with different concentration gradients and control solutions, add them to a new 96-well plate, and incubate at 37°C for 1 h. Subsequently, the 96-well plate was centrifuged at 4,000 rpm for 10 min, and the supernatant was collected into a 96-well plate for later use. Then the absorbance was measured at a wavelength of 450 nm using a microplate reader. All experiments were repeated in three parallel groups and averaged. The hemolysis rate was calculated by the following formula and the IC50 value of each AMPs was calculated by online tools: https://www.aatbio.com/tools/ic50-calculator.
(1) Hemolysis rate (%)=OD(AMP)− OD(PBS)/OD(TritonX−100)− OD(PBS)×100%

Another data set relates to CRAB. Briefly: MBC determination, MBC/MIC ratio. It is filed as cell-based, carbapenem-resistant Acinetobacter baumannii. Conditions: MBC/MIC ≤4 is considered bactericidal. How it is done: The MBC was determined using the microdilution broth method described above for MIC determination. After identifying the clear wells (no growth), 10 µL of the liquid from these wells was transferred and spread on a nutrient agar plate. The plate was incubated at 37°C for 18–24 h. […] The lowest concentration with no visible growth was considered the MBC.

For data set [4], the system named is CRAB 2210186. Briefly: Thigh infection mouse model. The following applies: neutropenic mice, ~1 × 10^6 CFU in thigh, i.p. at 1, 3, 5, 7 h post-infection (PL-15 10 × MIC, 100 µL; polymyxin B 20,000–25,000 U kg^−1 day^−1), n = 8. It is filed as in vivo, BALB/c mice. The source says: The WHO has classified CRAB as a “Critical Priority” pathogen in its Priority Pathogens List, recognizing it as a predominant causative agent of hospital-acquired infections ([2]). This classification reflects CRAB’s global dissemination, high mortality rates, and extreme resistance profiles. Given this critical situation, a thigh infection model was employed to evaluate the in vivo therapeutic efficacy of PL-15 against CRAB. To establish the mouse thigh infection model, mice were pre-treated intraperitoneally with cyclophosphamide 4 days and 1 day prior to bacterial inoculation to induce neutropenia, administered at doses of 150 mg kg^−1 and 100 mg kg^−1, respectively ([51]). Each mouse was then injected with approximately 10^6 colony-forming unit (CFU) of CRAB in the thigh tissue, followed by four intraperitoneal injections of PL-15, polymyxin B, or phosphate-buffered saline (PBS) within 24 h of infection (Fig. 3a).
All animal experiments were performed according to the “Principles of Laboratory Animal Care” (NIH publication No. 86-23, revised 1985) and approved by the Animal Care and Use Committee of Shandong University (LL20240622, Jinan, China). Five-week-old male BALB/c mice were purchased from Beijing Vital River Laboratory Animal Technology Co., Ltd. (Beijing, China) and kept under a 12-hour light/12-hour dark cycle, humidity of 50%, and temperature of 22°C in standard specific pathogen-free individually vented cages.
To establish the mouse thigh infection model, mice were injected intraperitoneally with cyclophosphamide 4 d and 1 d before bacterial administration, at concentrations of 150 and 100 mg kg^−1, respectively, to induce neutropenia ([51]). CRAB 2210186 cells were suspended in sterile PBS, adjusted to a concentration of ~1 × 10^6 CFU per infection site and injected into the right thighs of eight mice per treatment group. PL-15 (10 × MIC, 100 µL), polymyxin B (20,000–25,000 U kg^−1 day^−1) or PBS were administered intraperitoneally at 1, 3, 5, and 7 h post-infection. Mice were euthanized 24 h after infection, and the thigh tissues were aseptically collected, weighed, homogenized, serially diluted in PBS, and plated onto solid MCA. The CFU of CRAB 2210186 per thigh was calculated by plating dilutions of the thigh homogenates (0.25 g of thigh tissue in 10 mL sterile PBS) on agar plates and counting colonies.

For data set [5], the system named is MRSA 2210187. The following applies: 10% fetal bovine serum, room temperature, 1–6 h, then MIC assay, triplicate.
Description: For serum sensitivity experiments, the peptide to be tested was incubated in 10% fetal bovine serum at room temperature for 1–6 h. After deactivation, the MICs of peptides against CRAB 2210186 and MRSA 2210187 were measured using the MIC assay. All experiments were performed in triplicate to ensure reliability.

As to WLKRILKWIGNKLKW [PL-15], the MIC entry in the data set with A. baumannii ATCC19606 was “lower than 11 µg mL^−1”; in the data set with CRAB 2210186 [1] it was 4 µg/mL; with MRSA 2210187 [2], 2 µg/mL; in the data set with CRKP 2403276, “lower than 11 µg mL^−1”. Moreover, the antimicrobial spectrum entry in data set [3] is “broad-spectrum antimicrobial properties”. Moreover, in the data set on sheep red blood cells, the “log2IC50 (50% hemolytic concentration)” value was ≥ 3. In the data set on CRAB, the “bactericidal classification by MBC/MIC ratio” value is listed as “bactericidal effects”. Besides, in the data set with CRAB 2210186 [4] (24 h), the “reduction of bacterial load compared to the PBS control group” value was “two orders of magnitude”. In the data set with CRAB 2210186 [4], the “bacteria eradicated in the thigh tissue within 24 h” value was “over 97%”. In addition, in the data set with MRSA 2210187 [5], the “fold change in MIC after incubation in serum” value was “maximum twofold increase”.
